These results are taken from publication PMC4195671, “Luteolin Suppresses Cancer Cell Proliferation by Targeting Vaccinia-Related Kinase 1” (PLoS ONE, 2014).

The target in assay [1] is T1, Vaccinia-related kinase 1 (VRK1) (Homo sapiens, UniProt Q99986). The experiment in a line: biochemical. The class given is binding.
In assay [2] the target is T1, Vaccinia-related kinase 1 (VRK1). Description: biochemical. The class given is binding. This is another data set of the same source.

Where two headings read alike, the source gives them in different places.

T1 sequence (Q99986 whole entry): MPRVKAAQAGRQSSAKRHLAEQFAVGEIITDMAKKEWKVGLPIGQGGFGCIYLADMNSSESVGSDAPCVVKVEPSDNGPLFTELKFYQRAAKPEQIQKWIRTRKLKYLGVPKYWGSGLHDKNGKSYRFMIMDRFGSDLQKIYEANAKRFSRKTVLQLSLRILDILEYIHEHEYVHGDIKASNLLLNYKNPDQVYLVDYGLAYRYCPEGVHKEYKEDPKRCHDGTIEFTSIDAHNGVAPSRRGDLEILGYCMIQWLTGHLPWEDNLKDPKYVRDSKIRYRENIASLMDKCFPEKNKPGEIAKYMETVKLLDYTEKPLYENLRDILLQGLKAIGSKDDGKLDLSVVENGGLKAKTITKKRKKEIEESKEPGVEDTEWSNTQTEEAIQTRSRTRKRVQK

As a reminder, the Kd is a measure of binding affinity in units of concentration. Read a low Kd as a tighter complex. For the molecule `COc1ccc(-c2cc(=O)c3c(O)c(OC)c(O)cc3o2)cc1OC` [eupatilin], the dissociation constant (Kd) in assay [1] was determined as 184 µM. Same read-out and setting: under `COc1c(O)cc(O)c2c(=O)cc(-c3ccccc3)oc12` [wogonin] stands 120 µM. In the case of `O=c1cc(-c2ccc(O)c(O)c2)oc2cc(O)cc(O)c12` [luteolin, 3′,4′,5,7-tetrahydroxyflavone], the affinity in assay [2], expressed as Kd, was 5.8 µM.
